Measurements: patent US20090142753A1, “Compositions and methods for detecting compounds to treat a neurological disorder” (Caritas St. Elizeth Medical Center of Boston, Inc., priority 2005, published 2009)

Legend:
human DJ-1 promoter [1] = experiment: DJ-1 promoter luciferase reporter assay in SH-SY5Y cells stably expressing −1000DJ-Luc; type: cell-based; conditions: 24 hours; for DJ-1 promoter-driven luciferase activity normalized to β-galactosidase activity: SH-SY5Y cells stably expressing −1000DJ-Luc, increasing doses; for Luciferase expression directed by the human DJ-1 promoter, fold change relative to untreated: SH-SY5Y −1000DJ-Luc vs 0DJ-Luc, normalized to total protein content (FIG. 6)
Description: (§1) To develop a cell-based assay system where one can identify agents that transcriptionally activate DJ-1, a plasmid vector (−1000DJ-Luc) was made that expressed a luciferase reporter gene directed by the human DJ-1 promoter containing 1000 base pairs upstream and 65 base pairs downstream sequences (−1000 to +65) of the transcription initiation site (FIG. 1). A19 base pair sequence containing +46 to +65 of the DJ-1 gene was fused to the luciferase gene to generate the control plasmid (0DJLuc). A neomycin resistance gene was inserted into the vectors as a selection marker. Next, human dopaminergic SH-SY5Y neuroblastoma cells were transfected with either −1000DJLuc or 0DJLuc selected for stably transfected clones. A plasmid encoding β-galactosidase gene was co-transfected to serve as an internal control for luciferase expression.
To confirm the stable expression of the reporter genes and to evaluate these cells as devices for drug discovery, stably transfected SH-SY5Y cells were treated with increasing doses of H2O2. This agent has been reported to upregulate DJ-1. See for example Reference 21. Twenty-four hours after treatment, cells were harvested to analyze luciferase and β-galactosidase activities. Toxicity induced by the higher dose H2O2 was corrected by reduced β-galactosidase activities. […] SH-SY5Y cells stably expressing −1000DJ-Luc and a plasmid encoding CMV-β-galactosidase were treated with the indicated amount of H2O2 for 24 hours. Luciferase and β-galactosidase activities were then determined. Because cellular toxicity increases with increasing H2O2 dosages, luciferase activity was normalized to β-galactosidase activity, with the value of untreated sample designated as 100. The values shown represent the average of 2 experiments carried out in triplicate. (P<0.05 by Anova). The Luciferase activity in control cell lines expressing 0DJ-Luc was not affected by H2O2. To further validate the cells as tools for compound screening, a rational approach to selecting candidate compounds that can transactivate DJ-1 gene based on the analysis of the human DJ-1 promoter was taken.
SH-SY5Y cells stably expressing −1000DJ-Luc were treated with increasing doses of TSA (FIG. 3A) or sodium butyrate (FIG. 3B) for 24 hours. Results were analyzed as described in FIG. 2. DJ-1 promoter-driven luciferase activity was then assayed.
A. Plasmids and Chemicals. DJ-1 promoter sequences from −1000 to +65 relative to the transcriptional initiation site was amplified from pDJ-1(1)luc by PCR with Xho I and Hind III sites using the following primers: DJ-1 F, 5′ […] (SEQ ID NO:); DJ-1 R, 5′ […] (SEQ ID NO:). The PCR product was then inserted into pGL3basic vector (Promega), between Xho I and Hind III sites to generate 1000DJ-Luc vector. For 0DJ-Luc, the sequences from +46 to +65 relative to the transcriptional initiation site were inserted between XhoI and Hind III sites instead. To facilitate selection, a neomycin resistant gene directed by the SV40 promoter with BamHI and Xho I linker was inserted between the BamHI and SalI sites of pGL3 basic, with the original SalI site abolished after ligation. pON260 encoding β-galactosidase gene was described previously. H2O2, Trichostatin A (TSA), and sodium butyrate were obtained from Sigma.
B. Cells and Transfection. The human neuroblastoma cell line SH-SY5Y was plated in 6 well dish at 70% confluency and co-transfected with 150 ng of pON260 and 25 fmol of −1000DJ-Luc or 0DJ-Luc per well with Transfectin reagent (Bio-Rad). 24 hours after transfection, cells were re-plated in 10 cm dishes and cultured in medium with 800 μg/ml of Geneticin (G418, Invitrogen). Three days later, cells were grown in medium containing 400 μg/ml of Geneticin. Surviving clones were cultured, and expanded, and subjected to analysis.
C. Luciferase and β-galactosidase Assays. Cells were treated with the indicated doses of H2O2, TSA or sodium butyrate for 24 hours before being lysed in reporter lysis buffer (Promega). […]

[2] = system: 0DJ-Luc control plasmid (+46 to +65 of the DJ-1 gene); experiment: Luciferase activity in control cell lines expressing 0DJ-Luc; type: cell-based, human; conditions: SH-SY5Y 0DJ-Luc cells, 24 hours
Description: as §1
To confirm the stable expression of the reporter genes and to evaluate these cells as devices for drug discovery, stably transfected SH-SY5Y cells were treated with increasing doses of H2O2. This agent has been reported to upregulate DJ-1. See for example Reference 21. Twenty-four hours after treatment, cells were harvested to analyze luciferase and β-galactosidase activities. […] Luciferase and β-galactosidase activities were then determined. […]
C. […] Luciferase and β-galactosidase activities were determined using assay kits following manufacturer's protocol (Promega).

human DJ-1 promoter [3] = experiment: DJ-1 luciferase assay in 96-well high throughput format; type: cell-based; conditions: 1000DJ-Luc SH-SY5Y cells, 96-well format, 5 μM, 24 hours, N=12
Description: FIG. 8 is a graph showing the results of a DJ-1 luciferase assay configured as a high throughput screen. Equal numbers of SH-SY5Y cells stably expressing the 1000DJ-Luc construct were plated in replicate (N=12) with 5 μM pergolide, bromocriptine or SAHA for 24 hours and then assayed for luciferase activity. The assay produced a Z′ value of 0.790 using SAHA as the positive and bromocriptine as the negative control.
The assay described above was carried out in a 96-well format. Twelve replicate samples of 1000DJ-Luc cells were each treated with pergolide or bromocriptine, which served as negative controls, or with SAHA, a compound known to increase DJ-1 expression. 5 μM of each compound was added to the cells in a 30 μl volume. Cells were lysed in 100 μl/well of passive lysis buffer, and 20 μl aliquots of the cell lysates were then used for a luciferase assay. Bromocriptine and pergolide are dopamine receptor agonists used for the treatment of motor symptoms in Parkinson's disease. […] In fact, levels of luciferase activity observed with these compounds were very similar to levels present in untreated control cells. […] A Z′ value was calculated using bromocriptine as the negative control. […] See “A Simple Statistical Parameter for Use in Evaluation and Validation of High Throughput Screening Assays” Zhang J H, Chung T D, Oldenburg K R, J Biomol Screen. 1999; 4(2):67-73.

DJ-1 protein [4] = experiment: Western blot of endogenous DJ-1 protein in SH-SY5Y cells; type: cell-based, human; conditions: for Total endogenous DJ-1 protein levels: SH-SY5Y cells stably expressing −1000DJ-Luc, 24 hours, Western blot (FIG. 4); for DJ-1 protein levels: SH-SY5Y cells, TSA 0, 50, 100 ng/ml, sodium butyrate 0, 2.5, 5, 10 mM (FIG. 6C)
Description: SHSY5Y cells stably expressing −1000DJ-Luc were treated with TSA or sodium butyrate for 24 hours. Total proteins were then extracted and analyzed by SDS-PAGE. After transfer, the membrane was first probed with a mouse monoclonal anti-DJ-1 antibody (1:1000) to reveal DJ-1 expression (Top panel). The membrane was then stripped and re-probed with a goat polyclonal anti-actin (1:1000). Therefore, and without wishing to be bound to theory, it is believed that by activating an anti-oxidative and neuroprotective protein DJ-1, HDAC inhibitors may prevent neuronal cell death in Parkinson disease or other neurodegenerative diseases.
SHSY5Y cells stably expressing −1000DJ-Luc were treated with TSA or sodium butyrate for 24 hours. Total proteins were extracted and analyzed by SDS-PAGE. After transfer, the membrane was first probed with a mouse monoclonal anti-DJ-1 antibody (1:1000) to reveal DJ-1 expression (Top panel). The membrane was then striped and re-probed with a goat polyclonal anti-actin (1:1000).
(§2) SH-SY5Y cells (FIG. 6C), human primary neuronal cultures containing cortical neurons and glia (FIG. 6D), or mouse embryonic stem cells (FIG. 6D) were treated with increasing doses of TSA (0, 50, or 100 ng/ml) and sodium butyrate (0, 2.5, 5, or 10 mM). The cells were then lysed. The protein concentration of each sample was determined using a Protein DC assay (Bio-Rad). Equal amount of proteins (30-40 μg) were resolved by 4-20% Tris-glycine SDS-PAGE in each experiment. Proteins were transferred onto nitrocellulose membranes, and probed with antibodies against DJ-1 (Stressgen) or β-actin (Santa Cruz). DJ-1 protein was then visualized using chemiluminescent detection, ECL WESTERN BLOTTING DETECTION SYSTEM (Amersham, Piscataway, N.J.), according to the manufacturer's instructions.
Human SH-SY5Y cells, a primary neuronal culture containing dopaminergic neurons and glia, or mouse embryonic stem cells were treated with selected HDAC inhibitors for 24 hours. Cells were then lysed in RIPA-DOC buffer (50 mM Tris, pH 7.2; 150 mM NaCl; 1% Triton-X100, 1% deoxycholate and 0.1% SDS) with 1× fresh protease inhibitor cocktail. For analysis of DJ-1 protein levels in mouse brains, C57BL6 mice were injected intraperitoneally with sodium butyrate (1200 mg/kg) or vehicle (PBS) daily for 14 days. Mice were euthanized and the cortical and midbrain tissues were collected, and snap frozen in liquid nitrogen. Tissues were disrupted in RIPA-DOC buffer with 1× protease inhibitor using Dounce homogenizers. Protein concentration of each sample was determined using Protein DC assay (Bio-Rad). Equal amounts of proteins (30-40 μg) were resolved by 4-20% Tris-glycine SDS-PAGE in each experiment. […]

DJ-1 protein [5] = experiment: Western blot of DJ-1 protein in human primary neuronal cultures; type: cell-based; conditions: human primary neuronal cultures containing cortical neurons and glia, increasing doses (FIG. 6D)
Description: as §2
(§3) Human SH-SY5Y cells, a primary neuronal culture containing dopaminergic neurons and glia, or mouse embryonic stem cells were treated with selected HDAC inhibitors for 24 hours. Cells were then lysed in RIPA-DOC buffer (50 mM Tris, pH 7.2; 150 mM NaCl; 1% Triton-X100, 1% deoxycholate and 0.1% SDS) with 1× fresh protease inhibitor cocktail. For analysis of DJ-1 protein levels in mouse brains, C57BL6 mice were injected intraperitoneally with sodium butyrate (1200 mg/kg) or vehicle (PBS) daily for 14 days. […] Protein concentration of each sample was determined using Protein DC assay (Bio-Rad). […]

DJ-1 protein [6] = experiment: Western blot of DJ-1 protein in mouse embryonic stem cells; type: cell-based; conditions: increasing doses (FIG. 6D)
Description: as §2, §3

DJ-1 mRNA = DJ-1 mRNA by quantitative real-time PCR in SH-SY5Y cells; type: cell-based, human; conditions: 5 mM, 1-12 hours after treatment
Description: SH-SY5Y cells were treated with 5 mM of sodium butyrate. Cells were then harvested for mRNA one, two, four, eight, and twelve hours after treatment. DJ-1 mRNA levels were quantitated using real-time PCR. DJ-1 mRNA levels were normalized to internal control β-actin mRNA levels.
Total RNA was extracted from the cells treated with sodium butyrate at various time points using Trizol reagent (Invitrogen). The total RNA was then purified with the RNAeasy kit (Qiagen). The quality of the RNA was confirmed using agarose (1%) gel electrophoresis. RNA (1 ng) from each sample was then amplified using Roche LightCycler and Qiagen QuantiTect™ SYBR Green RT-PCR kit according to the manufacturer's instructions. This protocol included: reverse transcription at 50° for 20 minutes, initial activation of Hotstar Taq polymerase at 95° C. for 15 minutes, then 40 cycles of 3-step cycling, including denaturation at 94° C. for 15 seconds; annealing at 58° C. for 20 seconds; extension at 72° C. for 20 sec). A fluorescence detection step was carried out at the end of each cycle. Melting curve analysis (0.1° C. per sec ramping rate, 60-95° C.) was performed with a continuous fluorescence measurement following the 40th cycle. β-actin mRNA was amplified in parallel as an internal control.

DJ-1 protein [7] = experiment: DJ-1 protein levels in mouse brain in vivo (immunoblot); conditions: C57BL6 mice, 1200 mg/kg intraperitoneally daily for fourteen days, cortical and midbrain tissues
Description: For analysis of DJ-1 protein levels in mouse brains, C57BL6 mice were injected intraperitoneally with vehicle (PBS) or sodium butyrate (1200 mg/kg) daily for fourteen days. Mice were euthanized and the cortical and midbrain tissues were collected, and snap frozen in liquid nitrogen. Tissues were disrupted in RIPA-DOC buffer with 1× protease inhibitor using a Dounce homogenizer. The protein concentration of each sample was determined using a Protein DC assay (Bio-Rad). Equal amounts of proteins (30-40 μg) were resolved by 4-20% Tris-glycine SDS-PAGE in each experiment. Proteins were transferred onto nitrocellulose membranes, and probed with antibodies against DJ-1 (Stressgen) or β-actin (Santa Cruz).
as §3

| Structure (SMILES) | DJ-1 promoter-driven luciferase activity normalized to β-galactosidase activity (human DJ-1 promoter [1]) | Luciferase activity in control cell lines expressing 0DJ-Luc [2] | Luciferase activity (human DJ-1 promoter [3]) | Luciferase expression directed by the human DJ-1 promoter, fold change relative to untreated (human DJ-1 promoter [1]) | Total endogenous DJ-1 protein levels (DJ-1 protein [4]) | DJ-1 protein levels (DJ-1 protein [4]) | DJ-1 protein levels (DJ-1 protein [5]) | DJ-1 protein levels (DJ-1 protein [6]) | DJ-1 mRNA levels normalized to β-actin mRNA (DJ-1 mRNA) | DJ-1 protein levels in mouse brain (DJ-1 protein [7]) |
| --- | --- | --- | --- | --- | --- | --- | --- | --- | --- | --- |
| OO [H2O2] | activated the human DJ-1 promoter in a dose dependent manner | not affected |  |  |  |  |  |  |  |  |
| CCCN1C[C@H](CSC)C[C@@H]2c3cccc4[nH]cc(c34)C[C@H]21 [pergolide] |  |  | little luciferase activity |  |  |  |  |  |  |  |
| O=C(CCCCCCC(=O)Nc1ccccc1)NO [SAHA, suberoylanilide hydroxamic acid] |  |  | substantial levels of luciferase activity | specifically activate luciferase expression |  |  |  |  |  |  |
| CC(/C=C/C(=O)NO)=C\[C@@H](C)C(=O)c1ccc(N(C)C)cc1 [TSA, Trichostatin A] | significantly activated the DJ-1 promoter |  |  | specifically activate luciferase expression | increased markedly | increased DJ-1 protein levels in a dose dependent fashion | increased DJ-1 protein levels in a dose dependent fashion | increased DJ-1 protein levels in a dose dependent fashion |  |  |
| CCCC(=O)[O-].[Na+] [sodium butyrate] | significantly activated the DJ-1 promoter |  |  | specifically activate luciferase expression | increased markedly | increased DJ-1 protein levels in a dose dependent fashion | increased DJ-1 protein levels in a dose dependent fashion | increased DJ-1 protein levels in a dose dependent fashion | transient increase in DJ-1 mRNA levels | increased DJ-1 protein levels in mouse brain in vivo |
